According to patent US20240294543A1, “CYCLOHEPTA-THIENO-DIAZEPINE DERIVATIVES AS GABA A GAMMA1 PAM” (Hoffmann-La Roche Inc., priority 2021, published 2024):
Like-named read-outs stand apart in the source and are kept apart here.

Tests used:
[1] = target: human GABAA α1β3γ2 receptor (Homo sapiens (Human), UniProt P14867+P18507); experiment: Radioligand binding assay, competition for [3H]Flumazenil, γ2-containing GABAA subtypes; details: for γ2/γ1 Selectivity Ratio: Ki α1β3γ2 (nM)/Ki α2β2γ1 (nM); for LogSel: Log[Ki α1β3γ2 (nM)/Ki α2β2γ1 (nM)]
Description: The affinity of compounds at GABAA γ2 subunit-containing receptors was measured by competition for [^3H]Flumazenil (81.1 Ci/mmol; Roche) binding to HEK293F cells expressing human (transiently transfected) receptors of composition α1β3γ2.
Harvested pellets from HEK293F cells expressing the different GABAA γ2 receptor subtypes were resuspended in Mannitol Buffer pH 7,2-7,4 and processed as described above for the cells expressing the GABAA γ1 subunit-containing receptors.
Assays were incubated to equilibrium for 1 hour at 4° C. and harvested onto GF/C uni-filters (Packard) by filtration using a Packard harvester and washing with ice-cold wash buffer (50 mM Tris; pH 7.5). After anhydrousing, filter-retained radioactivity was detected by liquid scintillation counting. Ki values were calculated using Excel-Fit (Microsoft) and are the means of two determinations.

[2] = target: human GABAA α2β2γ1 receptor (Homo sapiens (Human), UniProt P47869+Q8N1C3); experiment: Radioligand binding assay, competition for [3H]RO7239181, γ1-containing GABAA subtypes; details: Ki h-GABAA α2β2γ1, membranes of HEK293F cells, [3H]RO7239181 20-30 nM
Description: The affinity of compounds at GABAA γ1 subunit-containing receptors was measured by competition for [^3H]RO7239181 (67.3 Ci/mmol; Roche) binding to membranes from HEK293F cells (ThermoFisher R79007) expressing human (transiently transfected) receptors of composition α5β2γ1, α2β2γ1, α1β2γ1.
Harvested pellets from HEK293F cells expressing the different GABAA receptor subtypes were resuspended in Mannitol Buffer pH 7.2-7.4 (Mannitol 0.29 M, Triethylamine 10 mM, Acetic acid 10 mM, EDTA 1 mM plus protease inhibitors (20 tablets Complete, Roche Diagnostics Cat. No. 05 056 489 001 per liter)), washed two times and then resuspended at 1:10 to 1:15 dilution in the same buffer. Cell disruption was performed by stirring the suspension in a Parr vessel #4637 at 435 psi for 15 minutes, and then the suspensions were centrifuged at 1000×g for 15 minutes at 4° C. (Beckman Avanti J-HC; rotor JS-4.2). The supernatant (S1) was transferred in a 21 Schott flask and the pellet (P1) was resuspended with Mannitol Buffer up to 175 ml. The resuspended pellet was transferred into a 250 ml Corning centrifugal beaker and centrifuged at 1500×g for 10 minutes at 4° C. (Beckman Avanti J-HC; rotor JS-4.2). The supernatant (S1) was then transferred in the 21 Schott flask and the pellet was discarded. The supernatants (S1) were centrifuged in 500 ml Beckman polypropylene centrifugal beaker at 15'000×g for 30 minutes at 4° C. (Beckman Avanti J-20 XP; rotor JLA-10.500). The pellet (P2) was resuspended with Mannitol Buffer 1:1 and frozen at −80° C. The supernatant (S2) was centrifuged in 100 ml Beckman polypropylene centrifugal tubes at 48000×g for 50 minutes at 4° C. (Beckman Avanti J-20 XP; rotor JA-18). The supernatant (S3) was discarded and the pellet (P3) was resuspended with 1:1 Mannitol Buffer. The P2 and P3 protein concentration was determined with the BIORAD Standard assay method with bovine serum albumin as standard and measured on the NANO-Drop 1000. The membrane suspension was aliquots (500 μl per tube) and stored at −80° C. until required.
Membrane homogenates were resuspended and polytronised (Polytron PT1200E Kinematica AG) in Potassium Phosphate 10 mM, KCl 100 mM binding buffer at pH 7.4 to a final assay concentration determined with a previous experiment.
Assays were incubated to equilibrium for 1 hour at 4° C. and then, membranes were filtered onto unifilter (96-well white microplate with bonded GF/C filters preincubated 20-50 minutes in 0.3% Polyethylenimine) with a Filtermate 196 harvester (Packard BioScience) and washed 4 times with cold Potassium Phosphate 10 mM pH 7.4, KCl 100 mM binding buffer. After anhydrousing, filter-retained radioactivity was detected by liquid scintillation counting. Ki values were calculated using Excel-Fit (Microsoft) and are the means of two determinations.

[3] = HEK293F cells, [3H]Flumazenil 1 nM, Table 1, read-out: Ki h-GABAA α1β3γ2

Compound | Ki [1, 3] [nM] | γ2/γ1 Selectivity Ratio ([1]; Table 1) | LogSel ([1]; Table 1) | Ki ([2]; Table 1) [nM] | Ki ([2]; Table 2) [nM] | Ki [1] [nM]
C[C@@H]1N=C(c2c(F)cccc2F)c2c(sc3c2COCCC3)-n2cc(C(=O)NCC3(O)CC3)nc21 [Example 68, (7S)-9-(2,6-difluorophenyl)-N-[(1-hydroxycyclopropyl)methyl]-7-methyl-13-oxa-18-thia-2,5,8-triazatetracyclo[8.8.0.02,6.011,17]octadeca-1(10),3,5,8,11(17)-pentaene-4-carboxamide] | 1980 | 187.5 | 2.27 | 10.6 | 10.6 | 
C[C@@H]1N=C(c2c(F)cccc2F)c2c(sc3c2COCCO3)-n2nc(C(=O)N3CCC3)nc21 [Example 22, azetidin-1-yl-[(7S)-9-(2,6-difluorophenyl)-7-methyl-13,16-dioxa-18-thia-2,3,5,8-tetrazatetracyclo[8.8.0.02,6.011,17]octadeca-1(10),3,5,8,11(17)-pentaen-4-yl]methanone] | 3040 | 304.3 | 2.48 | 10 | 10 | 
C[C@@H]1N=C(c2c(F)cccc2F)c2c(sc3c2COCCO3)-n2nc(C(=O)N3CC(OC(C)(C)C)C3)nc21 [Example 29, (3-tert-butoxyazetidin-1-yl)-[(7S)-9-(2,6-difluorophenyl)-7-methyl-13,16-dioxa-18-thia-2,3,5,8-tetrazatetracyclo[8.8.0.02,6.011,17]octadeca-1(10),3,5,8,11(17)-pentaen-4-yl]methanone] | 2830 | 366.9 | 2.56 | 7.7 | 7.7 | 
Cc1nnc2n1-c1sc3c(c1C(c1c(F)cccc1F)=N[C@H]2C)CCCC[C@H]3F (single isomer, unassigned) [Example 11] |  | 47.3 | 1.67 | 17.4 | 17.5 | 825
C[C@@H]1N=C(c2c(F)cccc2F)c2c(sc3c2COCCO3)-n2nc(C(=O)NCCF)nc21 [Example 25, (7S)-9-(2,6-difluorophenyl)-N-(2-fluoroethyl)-7-methyl-13,16-dioxa-18-thia-2,3,5,8-tetrazatetracyclo[8.8.0.02,6.011,17]octadeca-1(10),3,5,8,11(17)-pentaene-4-carboxamide] | 2190 | 75.4 | 1.88 | 29 | 29 | 
C[C@@H]1N=C(c2c(F)cccc2F)c2c(sc3c2COCCO3)-n2c(C3CC3)nnc21 [Example 43, (7S)-3-cyclopropyl-9-(2,6-difluorophenyl)-7-methyl-13,16-dioxa-18-thia-2,4,5,8-tetrazatetracyclo[8.8.0.02,6.011,17]octadeca-1(10),3,5,8,11(17)-pentaene] |  | 227.2 | 2.36 | 23.6 | 23.6 | 5360
C[C@@H]1N=C(c2c(F)cccc2F)c2c(sc3c2COCCO3)-n2c(C(F)F)nnc21 [Example 48, (7S)-3-(difluoromethyl)-9-(2,6-difluorophenyl)-7-methyl-13,16-dioxa-18-thia-2,4,5,8-tetrazatetracyclo[8.8.0.02,6.011,17]octadeca-1(10),3,5,8,11(17)-pentaene] |  | 626.6 | 2.80 | 47.9 | 47.9 | > 30000
Cc1nnc2n1-c1sc3c(c1C(c1c(F)cccc1F)=N[C@H]2C)CCCC(O)C3 (mixture of isomers) [Example 13, (7S,15RS)-9-(2,6-difluorophenyl)-3,7-dimethyl-18-thia-2,4,5,8-tetrazatetracyclo[8.8.0.02,6.011,17]octadeca-1(10),3,5,8,11(17)-pentaen-15-ol] |  | 78.9 | 1.90 | 15.1 | 15.1 | 1190
[2H]C1([2H])OCc2c(sc3c2C(c2c(F)cccc2F)=N[C@@H](C)c2nc(C(=O)N4CCC4)nn2-3)OC1([2H])[2H] [Example 23, azetidin-1-yl-[(7S)-14,14,15,15-tetradeuterio-9-(2,6-difluorophenyl)-7-methyl-13,16-dioxa-18-thia-2,3,5,8-tetrazatetracyclo[8.8.0.02,6.011,17]octadeca-1(10),3,5,8,11(17)-pentaen-4-yl]methanone] | 8420 | 1329.5 | 3.12 | 6.3 | 6.3 | 
C[C@@H]1N=C(c2c(F)cccc2F)c2c(sc3c2COCCC3)-n2cc(C(=O)NCC(C)(C)O)nc21 [Example 67, (7S)-9-(2,6-difluorophenyl)-N-(2-hydroxy-2-methyl-propyl)-7-methyl-13-oxa-18-thia-2,5,8-triazatetracyclo[8.8.0.02,6.011,17]octadeca-1(10),3,5,8,11(17)-pentaene-4-carboxamide] | 1800 | 84.5 | 1.93 | 21.3 | 21.3 | 
C[C@@H]1N=C(c2c(F)cccc2F)c2c(sc3c2COCCC3)-n2nc(C(=O)NC[C@@](C)(O)C(F)(F)F)nc21 [Example 70, (7S)-9-(2,6-difluorophenyl)-7-methyl-N-[(2R)-3,3,3-trifluoro-2-hydroxy-2-methyl-propyl]-13-oxa-18-thia-2,3,5,8-tetrazatetracyclo[8.8.0.02,6.011,17]octadeca-1(10),3,5,8,11(17)-pentaene-4-carboxamide] | 3550 | 71.1 | 1.85 | 49.9 | 49.9 | 
C[C@@H]1N=C(c2c(F)cccc2F)c2c(sc3c2COCCC3)-n2nc(C(=O)N[C@H]3C[C@@H](O)C3)nc21 [Example 64, (7S)-9-(2,6-difluorophenyl)-N-(cis-3-hydroxycyclobutyl)-7-methyl-13-oxa-18-thia-2,3,5,8-tetrazatetracyclo[8.8.0.02,6.011,17]octadeca-1(10),3,5,8,11(17)-pentaene-4-carboxamide] | 7870 | 139.9 | 2.15 | 56.2 | 56.2 | 
C[C@@H]1N=C(c2c(F)cccc2F)c2c(sc3c2COCCC3)-n2cc(C(=O)NCCO)nc21 [Example 66, (7S)-9-(2,6-difluorophenyl)-N-(2-hydroxyethyl)-7-methyl-13-oxa-18-thia-2,5,8-triazatetracyclo[8.8.0.02,6.011,17]octadeca-1(10),3,5,8,11(17)-pentaene-4-carboxamide] | 2510 | 170.6 | 2.23 | 14.7 | 14.7 | 
Cc1nnc2n1-c1sc3c(c1C(c1c(F)cccc1F)=N[C@H]2C)CC[C@@H](O)CC3 [Example 27, (7S,14R)-9-(2,6-difluorophenyl)-3,7-dimethyl-18-thia-2,4,5,8-tetrazatetracyclo[8.8.0.02,6.011,17]octadeca-1(10),3,5,8,11(17)-pentaen-14-ol] |  | 266.4 | 2.43 | 42.8 | 42.8 | 11400
C[C@@H]1N=C(c2c(F)cccc2F)c2c(sc3c2COCCO3)-n2nc(C(=O)NC3CC3)nc21 [Example 36] | 4080 | 72.6 | 1.86 | 56.3 | 56.3 | 
